{"source": "patent US20140228278A1", "about": "“ANTIBIOTICS AND METHODS FOR MANUFACTURING THE SAME” (priority 2011, published 2014)", "key": {"[1]": {"tested_on": "B. amylo. FZB42", "format": "cell-based, Bacillus amyloliquefaciens"}, "[2]": {"tested_on": "E. coli K12", "assay": "Agar bioassay, growth suppression seen as clear zone", "format": "cell-based", "design": "key: ++: inhibition; +: weak inhibition; −: no inhibition", "settings": "indicator strain E. coli K12"}, "[3]": {"tested_on": "B. pumilus ATCC 7061", "format": "cell-based, Bacillus pumilus"}, "[4]": {"tested_on": "B. amylo. (NRRL B-14393)", "format": "cell-based, Bacillus amyloliquefaciens"}, "[5]": {"tested_on": "any other tested bacterium", "format": "cell-based"}, "[6]": {"tested_on": "B. anthracis strain Sterne", "format": "cell-based, Bacillus anthracis"}, "[7]": {"tested_on": "Bacillus subtilis HB0042", "assay": "Agar bioassay, growth suppression seen as clear zone", "format": "cell-based", "design": "key: ++: inhibition; +: weak inhibition; −: no inhibition", "settings": "indicator strain Bacillus subtilis HB0042"}, "[8]": {"tested_on": "Bacillus cereus ATCC14579", "format": "cell-based", "design": "key: ++: inhibition; +: weak inhibition; −: no inhibition"}, "[9]": {"tested_on": "Enterococcus faecalis st. U503 [VRE]", "format": "cell-based"}, "[10]": {"tested_on": "Bacillus subtilis 168", "assay": "Agar bioassay, growth suppression seen as clear zone", "format": "cell-based", "design": "key: ++: inhibition; +: weak inhibition; −: no inhibition", "settings": "indicator strain Bacillus subtilis 168"}, "[11]": {"tested_on": "Streptococcus pyogenes", "format": "cell-based"}, "[12]": {"tested_on": "Staphylococcus aureus st. NRS384/USA300 [MRSA]", "format": "cell-based"}, "[13]": {"tested_on": "Klebsiella terrigena", "assay": "Agar bioassay, growth suppression seen as clear zone", "format": "cell-based", "design": "key: ++: inhibition; +: weak inhibition; −: no inhibition", "settings": "indicator strain Klebsiella terrigena"}, "[14]": {"tested_on": "Bacillus brevis ATCC8246", "format": "cell-based", "design": "key: ++: inhibition; +: weak inhibition; −: no inhibition"}, "[15]": {"tested_on": "Paenibacillus polymyxa", "format": "cell-based", "design": "key: ++: inhibition; +: weak inhibition; −: no inhibition"}, "[16]": {"tested_on": "Listeria monocytogenes", "format": "cell-based"}, "[17]": {"tested_on": "Bacillus pumilus", "format": "cell-based", "design": "key: ++: inhibition; +: weak inhibition; −: no inhibition"}, "[18]": {"tested_on": "B. anthracis strain Sterne", "format": "cell-based, Bacillus anthracis", "remark": "listed apart in the source"}, "[19]": {"tested_on": "Bacillus subtilis CU1065", "assay": "Agar bioassay, growth suppression seen as clear zone", "format": "cell-based", "design": "key: ++: inhibition; +: weak inhibition; −: no inhibition", "settings": "indicator strain Bacillus subtilis CU1065"}, "[20]": {"tested_on": "Bacillus sphaericus", "format": "cell-based", "design": "key: ++: inhibition; +: weak inhibition; −: no inhibition"}, "[21]": {"tested_on": "Arthrobacter sp.", "format": "cell-based", "design": "key: ++: inhibition; +: weak inhibition; −: no inhibition"}, "[22]": {"tested_on": "Bacillus licheniformis ATCC9789", "format": "cell-based", "design": "key: ++: inhibition; +: weak inhibition; −: no inhibition"}, "[23]": {"tested_on": "Staphylococcus aureus", "assay": "Agar bioassay, growth suppression seen as clear zone", "format": "cell-based", "design": "key: ++: inhibition; +: weak inhibition; −: no inhibition", "settings": "indicator strain Staphylococcus aureus"}, "[24]": {"tested_on": "B. anthracis", "format": "cell-based, Bacillus anthracis"}, "[25]": {"tested_on": "Pseudomonas sp.", "assay": "Agar bioassay, growth suppression seen as clear zone", "format": "cell-based", "design": "key: ++: inhibition; +: weak inhibition; −: no inhibition", "settings": "indicator strain Pseudomonas sp."}, "[26]": {"tested_on": "Paenibacillus granivorans", "format": "cell-based", "design": "key: ++: inhibition; +: weak inhibition; −: no inhibition"}, "[27]": {"tested_on": "Micrococcus luteus", "format": "cell-based", "design": "key: ++: inhibition; +: weak inhibition; −: no inhibition"}, "[28]": {"tested_on": "Erwinia caratovora", "format": "cell-based", "design": "key: ++: inhibition; +: weak inhibition; −: no inhibition"}, "[29]": {"tested_on": "Bacillus megaterium 7A1", "format": "cell-based", "design": "key: ++: inhibition; +: weak inhibition; −: no inhibition"}}}
{"compound": "CC[C@H](C)[C@H](NC(=O)c1nc(-c2nc(-c3csc(-c4nc(-c5csc(C(CCCN=C(N)N)N(C)C)n5)oc4C)n3)oc2C)oc1C)C(=O)N[C@H](c1nc(-c2nc(-c3nc(-c4nc(C5=NC(C(=O)N[C@@H](Cc6ccccc6)C(=O)O)C(C)O5)co4)co3)co2)co1)[C@@H](C)CC", "note": "(stereo partly drawn) [PZN, plantazolicin]", "values": [{"measurement": "Susceptibility to the action of PZN", "setting": "[1]", "result": "no observable inhibition"}, {"measurement": "Degree of inhibition in a bioassay", "setting": "[2]", "result": "−"}, {"measurement": "Susceptibility to the action of PZN", "setting": "[3]", "result": "no observable inhibition"}, {"measurement": "Susceptibility to the action of PZN", "setting": "[4]", "result": "completely resistant"}, {"measurement": "Inhibition zones in agar diffusion bioassay", "setting": "[5]", "result": "inhibition zones were not observed"}, {"measurement": "Growth inhibition / activity against B. anthracis in microbroth dilution bioassay", "setting": "[6]", "result": "potent growth inhibition"}, {"measurement": "MIC99", "setting": "[6]", "result": 4, "unit": "µg/mL"}, {"measurement": "Degree of inhibition in a bioassay", "setting": "[7]", "result": "++"}, {"measurement": "Degree of inhibition in a bioassay", "setting": "[8]", "result": "+"}, {"measurement": "Growth inhibition in microbroth dilution bioassay", "setting": "[9]", "result": "unaffected"}, {"measurement": "Degree of inhibition in a bioassay", "setting": "[10]", "result": "+"}, {"measurement": "Growth inhibition in microbroth dilution bioassay", "setting": "[11]", "result": "only inhibited by very high concentrations"}, {"measurement": "Growth inhibition in microbroth dilution bioassay", "setting": "[12]", "result": "unaffected"}, {"measurement": "Degree of inhibition in a bioassay", "setting": "[13]", "result": "−"}, {"measurement": "Degree of inhibition in a bioassay", "setting": "[14]", "result": "+"}, {"measurement": "Degree of inhibition in a bioassay", "setting": "[15]", "result": "−"}, {"measurement": "Growth inhibition in microbroth dilution bioassay", "setting": "[16]", "result": "unaffected"}, {"measurement": "Degree of inhibition in a bioassay", "setting": "[17]", "result": "−"}, {"measurement": "Mode of action (bactericidal) on reculturing of treated cells in the absence of PZN", "setting": "[18]", "result": "bactericidal"}, {"measurement": "Degree of inhibition in a bioassay", "setting": "[19]", "result": "+"}, {"measurement": "Degree of inhibition in a bioassay", "setting": "[20]", "result": "+"}, {"measurement": "Degree of inhibition in a bioassay", "setting": "[21]", "result": "−"}, {"measurement": "Degree of inhibition in a bioassay", "setting": "[22]", "result": "+"}, {"measurement": "Degree of inhibition in a bioassay", "setting": "[23]", "result": "−"}, {"measurement": "Cell morphology by DIC microscopy", "setting": "[24]", "result": "massive lysis"}, {"measurement": "Degree of inhibition in a bioassay", "setting": "[25]", "result": "−"}, {"measurement": "Degree of inhibition in a bioassay", "setting": "[26]", "result": "+"}, {"measurement": "Degree of inhibition in a bioassay", "setting": "[27]", "result": "+"}, {"measurement": "Degree of inhibition in a bioassay", "setting": "[28]", "result": "−"}, {"measurement": "Degree of inhibition in a bioassay", "setting": "[29]", "result": "++"}]}
